{
  "source": "the kinase profiling compilation of Christmann-Franck et al. (2016)",
  "key": {"EIF2AK4 KD1 KD2 (human)": {"molecular_target": "EIF2AK4 KD1 KD2 (human) (UniProt Q9P2K8)", "sequence (Q9P2K8 whole entry, looked up)": "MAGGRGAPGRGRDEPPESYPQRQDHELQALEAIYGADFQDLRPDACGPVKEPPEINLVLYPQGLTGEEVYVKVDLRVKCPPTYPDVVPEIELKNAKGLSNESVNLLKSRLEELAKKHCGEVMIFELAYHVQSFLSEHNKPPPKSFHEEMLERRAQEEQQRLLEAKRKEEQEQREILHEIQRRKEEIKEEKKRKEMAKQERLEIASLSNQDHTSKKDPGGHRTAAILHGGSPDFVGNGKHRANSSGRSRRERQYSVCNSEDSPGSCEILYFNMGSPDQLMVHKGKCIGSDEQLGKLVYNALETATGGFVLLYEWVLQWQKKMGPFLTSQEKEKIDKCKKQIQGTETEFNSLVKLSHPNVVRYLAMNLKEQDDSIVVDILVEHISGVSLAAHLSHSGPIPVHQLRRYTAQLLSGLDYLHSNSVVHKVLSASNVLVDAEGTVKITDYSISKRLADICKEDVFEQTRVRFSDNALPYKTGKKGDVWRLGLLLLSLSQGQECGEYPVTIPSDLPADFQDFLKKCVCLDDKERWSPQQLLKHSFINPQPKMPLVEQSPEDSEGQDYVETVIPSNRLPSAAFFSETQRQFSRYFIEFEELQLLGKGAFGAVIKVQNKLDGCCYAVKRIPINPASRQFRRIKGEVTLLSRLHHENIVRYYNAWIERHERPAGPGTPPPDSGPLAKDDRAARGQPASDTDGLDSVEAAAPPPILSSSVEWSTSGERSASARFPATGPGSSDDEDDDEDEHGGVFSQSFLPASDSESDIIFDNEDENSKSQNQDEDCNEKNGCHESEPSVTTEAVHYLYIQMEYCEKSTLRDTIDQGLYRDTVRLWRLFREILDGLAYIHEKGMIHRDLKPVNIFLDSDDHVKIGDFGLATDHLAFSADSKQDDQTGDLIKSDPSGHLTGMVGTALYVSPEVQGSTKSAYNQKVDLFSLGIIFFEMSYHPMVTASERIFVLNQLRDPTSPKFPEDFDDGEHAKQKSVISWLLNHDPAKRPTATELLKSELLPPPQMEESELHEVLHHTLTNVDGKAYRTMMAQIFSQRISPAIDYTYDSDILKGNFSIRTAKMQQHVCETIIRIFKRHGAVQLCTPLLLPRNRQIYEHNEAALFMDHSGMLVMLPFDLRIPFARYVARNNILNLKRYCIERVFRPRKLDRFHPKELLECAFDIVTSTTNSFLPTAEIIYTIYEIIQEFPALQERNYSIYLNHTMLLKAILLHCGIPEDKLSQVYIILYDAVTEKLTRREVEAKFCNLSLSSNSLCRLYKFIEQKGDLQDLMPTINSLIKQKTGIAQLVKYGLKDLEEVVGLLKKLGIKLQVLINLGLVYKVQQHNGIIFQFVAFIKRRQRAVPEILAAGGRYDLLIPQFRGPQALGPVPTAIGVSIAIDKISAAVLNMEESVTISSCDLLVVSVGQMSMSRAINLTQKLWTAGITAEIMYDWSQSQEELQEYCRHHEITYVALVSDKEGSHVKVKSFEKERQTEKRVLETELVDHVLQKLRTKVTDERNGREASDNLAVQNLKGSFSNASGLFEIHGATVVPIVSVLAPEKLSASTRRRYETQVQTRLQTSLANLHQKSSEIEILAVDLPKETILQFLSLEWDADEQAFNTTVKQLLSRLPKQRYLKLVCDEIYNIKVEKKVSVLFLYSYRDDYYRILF"}, "STK4 (human)": {"molecular_target": "STK4 (human) (UniProt Q13043)"}, "CAMK2D (human)": {"molecular_target": "CAMK2D (human) (UniProt Q13557)"}, "MAP3K2 (human)": {"molecular_target": "MAP3K2 (human) (UniProt Q9Y2U5)", "sequence (Q9Y2U5 whole entry, looked up)": "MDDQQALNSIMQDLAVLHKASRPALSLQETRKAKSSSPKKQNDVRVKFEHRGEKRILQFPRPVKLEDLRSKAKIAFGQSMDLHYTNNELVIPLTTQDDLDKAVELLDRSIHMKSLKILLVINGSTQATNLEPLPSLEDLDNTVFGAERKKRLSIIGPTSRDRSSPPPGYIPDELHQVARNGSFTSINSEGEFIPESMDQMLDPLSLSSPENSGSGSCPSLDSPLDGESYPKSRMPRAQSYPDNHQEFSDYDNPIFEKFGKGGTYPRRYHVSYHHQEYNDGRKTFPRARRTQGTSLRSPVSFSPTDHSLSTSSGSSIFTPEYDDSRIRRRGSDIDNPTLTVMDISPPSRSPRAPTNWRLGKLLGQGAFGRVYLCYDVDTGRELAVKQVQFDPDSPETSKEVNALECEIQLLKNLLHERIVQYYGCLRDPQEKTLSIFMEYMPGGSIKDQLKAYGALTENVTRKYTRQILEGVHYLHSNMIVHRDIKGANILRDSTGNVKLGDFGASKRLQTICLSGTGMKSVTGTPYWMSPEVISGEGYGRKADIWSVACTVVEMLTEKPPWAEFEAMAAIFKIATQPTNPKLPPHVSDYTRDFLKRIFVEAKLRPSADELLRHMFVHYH"}, "IRAK3 (human)": {"molecular_target": "IRAK3 (human) (UniProt Q9Y616)"}, "FYN (human)": {"molecular_target": "FYN (human) (UniProt P06241)"}, "TGFBR2 (human)": {"molecular_target": "TGFBR2 (human) (UniProt P37173)"}, "PRKACB (human)": {"molecular_target": "PRKACB (human) (UniProt P22694)"}, "MAP4K2 (human)": {"molecular_target": "MAP4K2 (human) (UniProt Q12851)"}, "CAMKK2 (human)": {"molecular_target": "CAMKK2 (human) (UniProt Q96RR4)"}, "EPHA4 (human)": {"molecular_target": "EPHA4 (human) (UniProt P54764)"}, "MAPK9 (human)": {"molecular_target": "MAPK9 (human) (UniProt P45984)"}, "CSK (human)": {"molecular_target": "CSK (human) (UniProt P41240)"}, "NEK7 (human)": {"molecular_target": "NEK7 (human) (UniProt Q8TDX7)", "sequence (Q8TDX7 whole entry, looked up)": "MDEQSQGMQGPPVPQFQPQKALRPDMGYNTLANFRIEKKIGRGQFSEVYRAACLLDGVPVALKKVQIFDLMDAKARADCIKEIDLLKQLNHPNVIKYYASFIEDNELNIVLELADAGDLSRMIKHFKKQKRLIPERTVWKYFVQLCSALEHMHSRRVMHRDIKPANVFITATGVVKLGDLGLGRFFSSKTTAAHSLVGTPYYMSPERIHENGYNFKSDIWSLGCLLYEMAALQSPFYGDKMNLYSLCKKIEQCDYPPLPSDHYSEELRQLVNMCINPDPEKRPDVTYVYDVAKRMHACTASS"}, "ADCK3 (human)": {"molecular_target": "ADCK3 (human) (UniProt Q8NI60)"}, "MAPK3 (human)": {"molecular_target": "MAPK3 (human) (UniProt P27361)"}, "FER (human)": {"molecular_target": "FER (human) (UniProt P16591)"}, "PRKCD (human)": {"molecular_target": "PRKCD (human) (UniProt Q05655)"}, "RPS6KA4 KD1 KD2 (human)": {"molecular_target": "RPS6KA4 KD1 KD2 (human) (UniProt O75676)"}, "TNK2 (human)": {"molecular_target": "TNK2 (human) (UniProt Q07912)"}, "MAP3K1 (human)": {"molecular_target": "MAP3K1 (human) (UniProt Q13233)"}, "MARK2 (human)": {"molecular_target": "MARK2 (human) (UniProt Q7KZI7)"}, "MAPK14 (human)": {"molecular_target": "MAPK14 (human) (UniProt Q16539)", "sequence (Q16539 whole entry, looked up)": "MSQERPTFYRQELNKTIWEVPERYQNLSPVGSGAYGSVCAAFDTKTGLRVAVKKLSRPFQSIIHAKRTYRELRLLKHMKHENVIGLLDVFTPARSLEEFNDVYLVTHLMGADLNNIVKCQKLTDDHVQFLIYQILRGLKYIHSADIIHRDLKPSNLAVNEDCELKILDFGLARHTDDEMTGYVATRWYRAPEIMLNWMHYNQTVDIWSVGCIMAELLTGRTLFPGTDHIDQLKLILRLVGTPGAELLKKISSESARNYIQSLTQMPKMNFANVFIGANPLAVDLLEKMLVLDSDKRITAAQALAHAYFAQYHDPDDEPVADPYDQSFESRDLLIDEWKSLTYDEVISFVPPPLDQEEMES"}, "BRAF (human)": {"molecular_target": "BRAF (human) (UniProt P15056)", "sequence (P15056 whole entry, looked up)": "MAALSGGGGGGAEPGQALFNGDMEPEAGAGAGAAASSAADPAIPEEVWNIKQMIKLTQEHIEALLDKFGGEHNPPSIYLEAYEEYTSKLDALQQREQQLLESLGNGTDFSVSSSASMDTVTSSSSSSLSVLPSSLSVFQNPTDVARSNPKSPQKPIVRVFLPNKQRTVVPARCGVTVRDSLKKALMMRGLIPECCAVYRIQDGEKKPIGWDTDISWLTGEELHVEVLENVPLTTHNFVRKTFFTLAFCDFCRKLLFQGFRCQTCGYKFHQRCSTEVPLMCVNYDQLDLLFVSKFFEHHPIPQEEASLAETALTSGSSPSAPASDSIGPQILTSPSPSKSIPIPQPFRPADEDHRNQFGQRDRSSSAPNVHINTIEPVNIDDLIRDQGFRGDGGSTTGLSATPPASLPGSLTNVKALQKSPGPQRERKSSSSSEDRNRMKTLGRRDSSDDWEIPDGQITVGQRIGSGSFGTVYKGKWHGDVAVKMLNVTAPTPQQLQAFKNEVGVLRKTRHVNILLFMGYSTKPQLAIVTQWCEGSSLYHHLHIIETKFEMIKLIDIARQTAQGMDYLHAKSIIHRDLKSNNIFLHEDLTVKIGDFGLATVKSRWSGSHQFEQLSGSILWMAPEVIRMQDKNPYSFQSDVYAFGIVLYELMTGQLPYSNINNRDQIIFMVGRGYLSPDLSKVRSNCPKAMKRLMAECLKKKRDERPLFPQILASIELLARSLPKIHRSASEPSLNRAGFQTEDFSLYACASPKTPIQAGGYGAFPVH"}, "CSNK2A2 (human)": {"molecular_target": "CSNK2A2 (human) (UniProt P19784)", "sequence (P19784 whole entry, looked up)": "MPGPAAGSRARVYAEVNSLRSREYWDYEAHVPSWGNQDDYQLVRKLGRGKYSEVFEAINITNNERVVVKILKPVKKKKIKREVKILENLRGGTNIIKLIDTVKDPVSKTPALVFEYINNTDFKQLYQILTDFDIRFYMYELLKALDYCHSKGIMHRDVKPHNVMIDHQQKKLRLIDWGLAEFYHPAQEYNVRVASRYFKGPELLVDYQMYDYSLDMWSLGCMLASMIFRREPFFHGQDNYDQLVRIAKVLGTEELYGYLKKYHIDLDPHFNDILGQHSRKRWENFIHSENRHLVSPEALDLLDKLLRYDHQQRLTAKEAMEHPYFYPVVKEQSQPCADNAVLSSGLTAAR"}, "MAST3 (human)": {"molecular_target": "MAST3 (human) (UniProt O60307)"}, "PRKD2 (human)": {"molecular_target": "PRKD2 (human) (UniProt Q9BZL6)", "sequence (Q9BZL6 whole entry, looked up)": "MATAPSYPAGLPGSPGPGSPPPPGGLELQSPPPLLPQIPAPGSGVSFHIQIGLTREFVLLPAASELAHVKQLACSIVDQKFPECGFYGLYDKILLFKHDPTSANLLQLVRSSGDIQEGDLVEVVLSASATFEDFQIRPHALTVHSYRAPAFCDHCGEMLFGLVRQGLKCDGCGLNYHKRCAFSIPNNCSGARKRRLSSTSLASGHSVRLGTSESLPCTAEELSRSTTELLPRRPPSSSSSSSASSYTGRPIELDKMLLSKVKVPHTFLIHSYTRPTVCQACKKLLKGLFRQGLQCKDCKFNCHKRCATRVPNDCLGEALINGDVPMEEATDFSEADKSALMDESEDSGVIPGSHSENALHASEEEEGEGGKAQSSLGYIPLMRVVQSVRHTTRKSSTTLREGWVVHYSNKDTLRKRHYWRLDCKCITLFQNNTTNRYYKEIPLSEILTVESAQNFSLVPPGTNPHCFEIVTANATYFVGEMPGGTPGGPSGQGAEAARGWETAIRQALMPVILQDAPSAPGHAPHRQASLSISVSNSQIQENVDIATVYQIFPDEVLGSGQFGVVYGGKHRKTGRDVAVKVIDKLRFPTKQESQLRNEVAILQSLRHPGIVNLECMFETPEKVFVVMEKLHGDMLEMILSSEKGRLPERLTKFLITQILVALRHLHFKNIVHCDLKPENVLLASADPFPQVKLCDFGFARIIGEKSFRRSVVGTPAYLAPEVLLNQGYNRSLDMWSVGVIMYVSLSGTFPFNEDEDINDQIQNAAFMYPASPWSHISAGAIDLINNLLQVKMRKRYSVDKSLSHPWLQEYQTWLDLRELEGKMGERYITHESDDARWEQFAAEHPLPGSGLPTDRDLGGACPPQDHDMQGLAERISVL"}, "LRRK2 (human)": {"molecular_target": "LRRK2 (human) (UniProt Q5S007)"}, "MAP2K5 (human)": {"molecular_target": "MAP2K5 (human) (UniProt Q13163)"}, "CAMK2G (human)": {"molecular_target": "CAMK2G (human) (UniProt Q13555)"}, "SGK223 (human)": {"molecular_target": "SGK223 (human) (UniProt Q86YV5)"}, "SRC (human)": {"molecular_target": "SRC (human) (UniProt P12931)"}, "CDKL2 (human)": {"molecular_target": "CDKL2 (human) (UniProt Q92772)"}, "RPS6KA5 KD1 KD2 (human)": {"molecular_target": "RPS6KA5 KD1 KD2 (human) (UniProt O75582)"}, "LYN (human)": {"molecular_target": "LYN (human) (UniProt P07948)"}, "ITK (human)": {"molecular_target": "ITK (human) (UniProt Q08881)"}, "DDR1 (human)": {"molecular_target": "DDR1 (human) (UniProt Q08345)"}, "STK16 (human)": {"molecular_target": "STK16 (human) (UniProt O75716)"}, "ULK3 (human)": {"molecular_target": "ULK3 (human) (UniProt Q6PHR2)"}, "TESK1 (human)": {"molecular_target": "TESK1 (human) (UniProt Q15569)"}, "MAPK1 (human)": {"molecular_target": "MAPK1 (human) (UniProt P28482)"}, "FGR (human)": {"molecular_target": "FGR (human) (UniProt P09769)"}, "CAMK1D (human)": {"molecular_target": "CAMK1D (human) (UniProt Q8IU85)"}, "BTK (human)": {"molecular_target": "BTK (human) (UniProt Q06187)"}},
  "data": [
    {"compound": "CN1CC[C@H](c2c(O)cc(O)c3c(=O)cc(-c4ccccc4Cl)oc23)[C@H](O)C1", "values": [
      {"measurement": "IC50", "setting": "EIF2AK4 KD1 KD2 (human)", "result": "> 10", "unit": "µM"},
      {"measurement": "IC50", "setting": "STK4 (human)", "result": "> 10", "unit": "µM"},
      {"measurement": "IC50", "setting": "CAMK2D (human)", "result": 7.67, "unit": "µM"},
      {"measurement": "IC50", "setting": "MAP3K2 (human)", "result": "> 10", "unit": "µM"},
      {"measurement": "IC50", "setting": "IRAK3 (human)", "result": "> 10", "unit": "µM"},
      {"measurement": "IC50", "setting": "FYN (human)", "result": "> 10", "unit": "µM"},
      {"measurement": "IC50", "setting": "TGFBR2 (human)", "result": "> 10", "unit": "µM"},
      {"measurement": "IC50", "setting": "PRKACB (human)", "result": "> 10", "unit": "µM"},
      {"measurement": "IC50", "setting": "MAP4K2 (human)", "result": "> 10", "unit": "µM"},
      {"measurement": "IC50", "setting": "CAMKK2 (human)", "result": 0.925, "unit": "µM"},
      {"measurement": "IC50", "setting": "EPHA4 (human)", "result": "> 10", "unit": "µM"},
      {"measurement": "IC50", "setting": "MAPK9 (human)", "result": "> 10", "unit": "µM"},
      {"measurement": "IC50", "setting": "CSK (human)", "result": "> 10", "unit": "µM"},
      {"measurement": "IC50", "setting": "NEK7 (human)", "result": "> 10", "unit": "µM"},
      {"measurement": "IC50", "setting": "ADCK3 (human)", "result": "> 10", "unit": "µM"},
      {"measurement": "IC50", "setting": "MAPK3 (human)", "result": "> 10", "unit": "µM"},
      {"measurement": "IC50", "setting": "FER (human)", "result": "> 10", "unit": "µM"},
      {"measurement": "IC50", "setting": "PRKCD (human)", "result": 1.19, "unit": "µM"},
      {"measurement": "IC50", "setting": "RPS6KA4 KD1 KD2 (human)", "result": 6.42, "unit": "µM"},
      {"measurement": "IC50", "setting": "TNK2 (human)", "result": "> 10", "unit": "µM"},
      {"measurement": "IC50", "setting": "MAP3K1 (human)", "result": "> 10", "unit": "µM"},
      {"measurement": "IC50", "setting": "MARK2 (human)", "result": "> 10", "unit": "µM"},
      {"measurement": "IC50", "setting": "MAPK14 (human)", "result": "> 10", "unit": "µM"},
      {"measurement": "IC50", "setting": "BRAF (human)", "result": "> 10", "unit": "µM"},
      {"measurement": "IC50", "setting": "CSNK2A2 (human)", "result": "> 10", "unit": "µM"},
      {"measurement": "IC50", "setting": "MAST3 (human)", "result": "> 10", "unit": "µM"},
      {"measurement": "IC50", "setting": "PRKD2 (human)", "result": 1.26, "unit": "µM"},
      {"measurement": "IC50", "setting": "LRRK2 (human)", "result": 9.63, "unit": "µM"},
      {"measurement": "IC50", "setting": "MAP2K5 (human)", "result": 9.71, "unit": "µM"},
      {"measurement": "IC50", "setting": "CAMK2G (human)", "result": 8.42, "unit": "µM"},
      {"measurement": "IC50", "setting": "SGK223 (human)", "result": "> 10", "unit": "µM"},
      {"measurement": "IC50", "setting": "SRC (human)", "result": "> 10", "unit": "µM"},
      {"measurement": "IC50", "setting": "CDKL2 (human)", "result": "> 10", "unit": "µM"},
      {"measurement": "IC50", "setting": "RPS6KA5 KD1 KD2 (human)", "result": "> 10", "unit": "µM"},
      {"measurement": "IC50", "setting": "LYN (human)", "result": "> 10", "unit": "µM"},
      {"measurement": "IC50", "setting": "ITK (human)", "result": "> 10", "unit": "µM"},
      {"measurement": "IC50", "setting": "DDR1 (human)", "result": "> 10", "unit": "µM"},
      {"measurement": "IC50", "setting": "STK16 (human)", "result": "> 10", "unit": "µM"},
      {"measurement": "IC50", "setting": "ULK3 (human)", "result": "> 10", "unit": "µM"},
      {"measurement": "IC50", "setting": "TESK1 (human)", "result": "> 10", "unit": "µM"},
      {"measurement": "IC50", "setting": "MAPK1 (human)", "result": "> 10", "unit": "µM"},
      {"measurement": "IC50", "setting": "FGR (human)", "result": "> 10", "unit": "µM"},
      {"measurement": "IC50", "setting": "CAMK1D (human)", "result": "> 10", "unit": "µM"},
      {"measurement": "IC50", "setting": "BTK (human)", "result": "> 10", "unit": "µM"}
    ]}
  ]
}
